Results: the NIST ThermoML archive (doi:10.1021/je301344y)
± gives the expanded uncertainty stated by the source.

Details: Fluid (supercritical or subcritical phases), Pulse-echo method

C=CC [propene]
Details	speed of sound [m/s]
240 K, 7107.3 kPa	1153.2 ± 2.1
240 K, 8108.1 kPa	1161.6 ± 2.1
240 K, 9108.7 kPa	1169.9 ± 2.1
240 K, 10109 kPa	1178 ± 1.2
240 K, 12611 kPa	1197.8 ± 1.2
240 K, 15113 kPa	1216.8 ± 1.2
240 K, 17614 kPa	1235.1 ± 1.2
240 K, 20116 kPa	1252.7 ± 1.1
240 K, 25119 kPa	1286.5 ± 1.1
240 K, 30122 kPa	1318.2 ± 1.1
240 K, 35126 kPa	1348.3 ± 1.1
240 K, 40129 kPa	1377 ± 1.1
240 K, 45132 kPa	1404.3 ± 1.1
240 K, 50136 kPa	1430.5 ± 1.1
240 K, 60144 kPa	1479.9 ± 1.1
240.01 K, 1303 kPa	1101.2 ± 2.2
240.01 K, 2103.6 kPa	1108.7 ± 2.2
240.01 K, 3104.3 kPa	1118 ± 2.2
240.01 K, 4105 kPa	1127.1 ± 2.2
240.01 K, 5105.7 kPa	1135.9 ± 2.1
240.01 K, 6106.4 kPa	1144.7 ± 2.1
260 K, 1303.3 kPa	970.62 ± 2.6
260 K, 2103.9 kPa	979.88 ± 2.4
260 K, 3104.6 kPa	991.17 ± 2.3
260 K, 4105.3 kPa	1002.2 ± 2.3
260 K, 5106.1 kPa	1012.9 ± 2.2
260 K, 6106.6 kPa	1023.3 ± 2.2
260 K, 7107.2 kPa	1033.5 ± 2.2
260 K, 8107.8 kPa	1043.4 ± 2.2
260 K, 9108.2 kPa	1053.1 ± 2.1
260 K, 10109 kPa	1062.6 ± 1.2
260 K, 12613 kPa	1085.6 ± 1.2
260 K, 15114 kPa	1107.5 ± 1.2
260 K, 17616 kPa	1128.4 ± 1.2
260 K, 20118 kPa	1148.4 ± 1.1
260 K, 25121 kPa	1186.3 ± 1.1
260 K, 30124 kPa	1221.6 ± 1.1
260 K, 35128 kPa	1254.8 ± 1.1
260 K, 40131 kPa	1286.2 ± 1.1
260 K, 45134 kPa	1316 ± 1.1
260 K, 50138 kPa	1344.4 ± 1.1
260 K, 60145 kPa	1397.5 ± 1.1
260 K, 70152 kPa	1446.7 ± 1.1
260 K, 80158 kPa	1492.6 ± 1.1
260 K, 90165 kPa	1535.6 ± 1.1
260 K, 100172 kPa	1576.3 ± 1.1
280 K, 1301.6 kPa	836.39 ± 3
280 K, 2102.4 kPa	848.18 ± 2.6
280 K, 3103.2 kPa	862.38 ± 2.5
280 K, 4104 kPa	876.04 ± 2.4
280 K, 5104.9 kPa	889.2 ± 2.4
280 K, 6105.8 kPa	901.91 ± 2.3
280 K, 7107.3 kPa	914.23 ± 2.3
280 K, 8108.1 kPa	926.15 ± 2.3
280 K, 9108.8 kPa	937.72 ± 2.2
280 K, 10110 kPa	948.97 ± 1.2
280 K, 12611 kPa	975.84 ± 1.2
280 K, 15113 kPa	1001.1 ± 1.2
280 K, 17613 kPa	1025 ± 1.2
280 K, 20117 kPa	1047.8 ± 1.1
280 K, 25118 kPa	1090.3 ± 1.1
280 K, 30122 kPa	1129.5 ± 1.1
280 K, 35126 kPa	1166 ± 1.1
280 K, 40129 kPa	1200.2 ± 1.1
280 K, 45133 kPa	1232.4 ± 1.1
280 K, 50138 kPa	1263.1 ± 1
280 K, 60144 kPa	1320 ± 1
280 K, 70151 kPa	1372.2 ± 1
280 K, 80157 kPa	1420.7 ± 1
280 K, 90164 kPa	1466.1 ± 1
280 K, 100171 kPa	1508.7 ± 1.1
299.99 K, 1403.2 kPa	696.05 ± 0.52
299.99 K, 2103.7 kPa	710.03 ± 0.53
299.99 K, 4105.1 kPa	746.66 ± 0.54
299.99 K, 8107.8 kPa	809.26 ± 0.56
299.99 K, 15113 kPa	898.02 ± 0.59
299.99 K, 20116 kPa	951.33 ± 0.6
299.99 K, 25119 kPa	998.93 ± 0.62
299.99 K, 25120 kPa	998.96 ± 0.62
299.99 K, 30123 kPa	1042.3 ± 0.64
299.99 K, 35126 kPa	1082.1 ± 0.65
299.99 K, 40130 kPa	1119.3 ± 0.66
299.99 K, 50137 kPa	1186.8 ± 0.69
299.99 K, 60144 kPa	1247.4 ± 0.71
299.99 K, 70151 kPa	1302.7 ± 0.74
299.99 K, 80156 kPa	1353.6 ± 1
299.99 K, 80158 kPa	1353.7 ± 0.76
299.99 K, 90164 kPa	1401.1 ± 0.78
299.99 K, 100172 kPa	1445.6 ± 0.8
300 K, 1402.2 kPa	696.01 ± 0.52
300 K, 1402.5 kPa	696 ± 3
300 K, 1402.7 kPa	696.01 ± 3
300 K, 2102.7 kPa	709.98 ± 2.9
300 K, 2104.1 kPa	710.04 ± 2.9
300 K, 3103.2 kPa	728.84 ± 2.7
300 K, 3104.7 kPa	728.9 ± 2.7
300 K, 3105.1 kPa	728.91 ± 2.7
300 K, 4103.8 kPa	746.6 ± 2.6
300 K, 4105.8 kPa	746.67 ± 2.7
300 K, 5104.2 kPa	763.4 ± 2.6
300 K, 6104.7 kPa	779.36 ± 2.5
300 K, 6106.5 kPa	779.42 ± 0.55
300 K, 7107.2 kPa	794.65 ± 2.4
300 K, 8106 kPa	809.21 ± 2.4
300 K, 8107.2 kPa	809.25 ± 0.56
300 K, 9106.7 kPa	823.24 ± 2.3
300 K, 10107 kPa	836.75 ± 1.2
300 K, 10109 kPa	836.79 ± 0.57
300 K, 12611 kPa	868.58 ± 1.2
300 K, 15113 kPa	898 ± 1.2
300 K, 17613 kPa	925.47 ± 1.2
300 K, 20114 kPa	951.3 ± 1.1
300 K, 25118 kPa	998.93 ± 1.1
300 K, 30121 kPa	1042.3 ± 1.1
300 K, 35124 kPa	1082.1 ± 1.1
300 K, 40128 kPa	1119.2 ± 1.1
300 K, 45131 kPa	1154 ± 1
300 K, 50135 kPa	1186.8 ± 1
300 K, 60142 kPa	1247.4 ± 1
300 K, 70149 kPa	1302.6 ± 1
300 K, 90163 kPa	1401.1 ± 1
300 K, 100170 kPa	1445.6 ± 1
319.99 K, 22616 kPa	886.71 ± 1.1
319.99 K, 100172 kPa	1386.9 ± 1
320 K, 2104.4 kPa	556.2 ± 2.7
320 K, 3105.2 kPa	584.43 ± 3
320 K, 4105.8 kPa	609.63 ± 3
